According to patent US20050123477A1, “Benzothiazole derivatives for in vivo imaging of amloid plaques” (priority 2002, published 2005):
Where no end group is shown, it is not given here.

Legend:
CACO-2 cells = assay: CACO-2 cell apparent permeability (Papp), BBB model; conditions: CACO-2 monolayers in Transwells, 30 minutes at 37° C., donor to acceptor
Procedure: Culturing of CACO-2 cells and Determination of Apparent Permeability (Papp) Values:
The seeding of 12 mm Transwells was as follows for CACO-2. Flasks of confluent cultures were trypsinsed and cells were carefully resuspended, making sure there are no clumps or air bubbles. 1.5 ml of tissue culture medium was placed in the bottom (acceptor) chamber of the wells and 0.5 ml containing 2×10^5 cells in the Transwell (donor chamber) and placed in the incubator. The cells were routinely monitored for adequate trans epithelial electrical resistance (TEER) using an EndOhm Tissue resistance measurement chamber (WPI). The subsequent maintenance and feeding of the cells on the Transwells was as follows: when feeding the wells, the medium was removed from the acceptor chamber (basolateral side) and donor chamber (apical side) of the Transwells. The medium was aspirated off with a pipette connected to a vacuum pump, being careful not to touch the filter. 0.5 ml of growth medium was then placed into the donor chamber and 1.5 ml of growth medium was placed into the acceptor chamber.
When the TEER values of the CACO-2 cell monolayers in Transwells was around 500 Ωcm^2 (300-800 Ωcm^2 was considered acceptable) permeability experiments were performed in triplicate as follows. All culture media was removed and acceptor and donor chambers were rinsed twice with Eagles Balance Salt Solution (EBSS) (Gibco) at 37° C. 1.5 ml EBSS was added to the acceptor chamber and 0.5 ml EBSS containing radiolabelled compound was added to the donor chamber. Cultures in Transwells were then incubated for 30 minutes at 37° C. at 200 rpm using a Labnet Vortemp. After 30 minutes, 100 μl aliquot was taken from the donor chamber and 750 μl from the acceptor chamber. These aliquots were then counted for radioactivity. The remaining EBSS was removed from the acceptor and donor chambers and then the Transwell was thoroughly rinsed three times la with EBSS. Next, the Transwell membrane (and associated cells) was removed using a scalpel and the amount of radiolabel associated with it was determined.
Permeability of compounds were determined by calculating their Papp value: Papp=ΔQ/Δt.60.A.Co (cm/sec)

[1] = Brain Uptake Index (BUI) method; format: in vivo; conditions: carotid artery bolus, decapitated after 15 seconds, relative to 14C-Butanol
Procedure: BUI is calculated according to the following equation: [formula] BUI was performed on three animals from the same test solution for each experiment. Each compound was assayed in duplicate.

[2] = molecular target: T1, fibrillar Beta-Amyloid Protein (BAP 1-40) (Homo sapiens, UniProt P05067); assay: Amyloid binding on SPA beads; conditions: 180 minutes at room temperature, equimolar amounts, non-specific binding subtracted
T1 construct: 25 μl BAP 1-40 (10 mg/ml, Biosource 03-138); purchased Biosource 03-138 (BAP 1-40); 03-243 (biotinylated BAP 1-40)
T1 sequence (P05067 672-711 limits assumed): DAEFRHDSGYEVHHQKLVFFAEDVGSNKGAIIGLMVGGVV
Procedure: The binding of Compound 1 (74 TBq/mmol) was determined compared to the ability of ^125I-beta amyloid protein 1-40 (^125I-BAP 1-40, Amersham Biosciences IM294)) to bind to amyloid 140 fibrils. Amyloid binding was essentially performed as follows.
Three fresh buffer stocks were prepared for experiments: Buffer 1, 50 mM HEPES/0.1 % Bovine Serum Albumin (BSA) pH 7.5; Buffer 2, 50 mM HEPES/0.1% BSA/400 μM ZnCl2 pH 7.5; Buffer 3, 50 mM HEPES/0.1% BSA/100 μM ZnCl2 pH 7.5.
Streptavidin coated scintillation proximity assay beads (SA-SPA beads, Amersham Biosciences) were used to immobilise fibrillar Beta-Amyloid Protein (BAP 1-40). Amyloid coated beads (SPA-BAP) were prepared by incubating 250 μl SA-SPA beads (100 mg/ml) with 250 μl Buffer 2, 425 μl Buffer 1, 50 μl biotinylated BAP 1-40 (0.5 mg/ml, Biosource 03-243), 25 μl BAP 1-40 (10 mg/ml, Biosource 03-138). Non-specific binding SPA beads (SPA-NSB) were prepared to assess the binding of compounds to SPA beads with no associated BAP 1-40 fibrils in the following incubation: 250 μl SA-SPA beads (100 mg/ml) with 250 μL Buffer 2,500 μl Buffer 1.
SPA-BAP and SPA-NSB incubations were left for 24 hours at room temperature and then spun 1.5 ml tubes (eppendorf, Merk, 306/0421/12) for 2 minutes at 1000×g. The supernatants were removed and the beads were washed twice by resuspending them in 1 ml Buffer 3 followed by centrifugation for 2 minutes at 1000×g. Finally, washed SPA-BAP and SPA-NSB beads were resuspended in 1 ml Buffer 3.
Amyloid binding of ^125I-BAP 1-40 and Compound 1 was performed in triplicate in 0.5 ml tubes (eppendorf, Merk, 306/0421/02) by adding 50 μl SPA-BAP beads to 25 μl Buffer 2 and 25 μl labelled compound (^125I-BAP 1-40 or Compound 1). Tubes were then incubated for 180 minutes at room temperature with shaking, followed by centrifugation for 2 minutes at 1000×g. The supernatants were removed and SPA-BAP pellet washed twice with 300 μl Buffer 3 containing 1% TWEEN-20 (Sigma, P7949). Non-specific binding for labelled compounds to the SPA beads was determined using incubations as described above but by substituting SPA-BAP beads with SPA-NSB beads. Radioactivity associated with the washed SPA bead pellets was then determined.
The affinity of labelled compounds for fibrillar BAP 1-40 was estimated by subtracting SPA-NSB associated counts from SPA-BAP associated counts. The binding of labelled compounds was then compared to ^125I-BAP binding, which was taken as being 100%.
In these experiments, ^125-BAP 1-40 or Compound 1 were added in equimolar amounts (between 1-5×10^−11 mmoles per incubation).

Row | Molecule | Papp (CACO-2 cells) [×10⁻⁶ cm/s] | Amyloid binding (% of 125I-BAP 1-40) [2] [%] | other results
1 | O=C[C@H](O)[C@@H](O)[C@H](O)[C@H](O)CO [^14C-Glucose, ^14C-glucose] | 57.9 |  | 
2 | CN1C(=O)CN=C(c2ccccc2)c2cc(Cl)ccc21 [^14C-diazapam, ^14C-diazepam] | 24.4 |  | 
3 | OCC(O)C(O)C(O)C(O)[14CH2]O (stereo not shown) [^14C-mannitol] | 3.63 |  | 
4 | ^14C-FDG [reference compound] |  |  | Mean BUI [1]: 17.98
5 | ^99mTc-Pn216-KKLVFF (BAP 15-20): ^99mTc-labelled BAP sequence responsible for the binding of BAP to itself |  | 9 | 
6 | ^125I-BAP 1-40: ^125I-beta amyloid protein 1-40, Amersham Biosciences IM294; reference taken as 100% binding |  | 100 | 
7 | ^125I-KKLVFFA (BAP 15-21): ^125I-labelled BAP 15-21 sequence (Amersham Biosciences) (not fully specified (N-terminus); also: 125I label, site not given here) |  | 21 | 
